What all share (format): cell-based
The test system of series [1] is latent HIV-1 infection in bulk population of latently infected JLTRG cells. Kind of series: Reactivation of latent HIV-1 in a bulk population of latently infected cells, flow cytometry. The settings on record: optimal concentration of each compound, day 57 bulk population, 100,000 viable cells counted. As to the method: (A) Jurkat cells were infected with an EGFP expressing, replication incompetent reporter virus and the level of productive HIV-1 infection at each indicated time-point was directly assessed by flow cytometric analysis for EGFP expression (untreated; black circles). Levels of initial non-productive and later on latent HIV-1 infection was determined 24 hours following TNF-α stimulation (black squares). The results represent the mean ±S.D. of three independent experiments.
a) Quantification of the HIV-1 reactivating capabilities of test compounds. Following infection, HIV-1 integrates into the cellular genome. Integration is random, although HIV-1 preferentially integrates into euchromatin structures. Latency development can be thus influenced by a multitude of factors that alter gene expression or DNA structure, such as divergent gene expression patterns or the cell cycle stage at the time point of viral integration. Although the reporter cell lines are representative for the majority of latently infected cells and reliably identify most reactivating agents during the screening effort, they can not allow quantification of the capability of the individual compounds to reactivate HIV-1 infection from a diverse population of latently infected cells. To account for the influence that the side of integration of a latent virus can have on a compounds ability to reactivate the virus, a bulk population of latently infected cells (FIG. 7) was established. Following infection of JLTRG cells with HIV-1 NL43, a rapid increase of the level of infection can be observed. On day 3, an average 27% of the cells were productively infected. […] Until day 15, the percentage of productively infected cells rapidly declined to 3% of the overall cell population. At this time point, an additional 5% of the cells were non-productively infected. […] Since 1×10^6 cells were initially infected, and virus mediated inhibition of cell proliferation influences the relative level of infection over time can be excluded, it can be calculated that the latently infected cell population should consist of […] individual latently infected cells. This bulk population of cells allows quantification of the capability of the respective compounds to reactivate latent HIV-1. […] Each compound was titrated over a two-log concentration range to allow for optimal reactivation. The results for the optimal concentration of each compound are depicted in FIG. 7B. […] TNF-α (10 ng/ml) reactivated latent HIV-1 infection in 5% of the cells, whereas the DNA histone deacetylase inhibitors trichostatin A (TSA) and sodium butyrate (NaBu) reactivated latent HIV-1 infection in only 3% or 2.5% of the cells, respectively. To achieve an accurate estimate of the differences in the capability of different agents to reactivate HIV-1 infection it is important to run a sufficiently high number of cells. For this flow cytometry based analysis, 100,000 cells viable per sample were counted.

For series [2], the system named is HIV-1 Tat / HIV-1 transcription in J89GFP cells. Kind of series: Suppression of TNF-α mediated HIV-1 reactivation in J89GFP cells by Tat inhibitor. The settings on record: 10 μM. As to the method:
EGFP expression following TNF-α (1 ng/ml) mediated reactivation of latent HIV-1 infection in J89GFP cells in the presence or absence of Ro24-7429 (10 μM). Following stimulation, area (A+B) represents the total amount of virus produced over a two day period of time, whereas area B represents the amount of virus produced in the presence of Ro24-7429. Results represent the mean ±S.D. of three independent experiments.
The latently HIV-1 infected reporter T cell line J89GFP (Kutsch et al., 2002) was pretreated with the respective compound and then stimulated with various concentrations of TNF-α. As reactivation of latent HIV-1 is dependent on Tat activity, a sufficiently potent Tat inhibitor would suppress HIV-1 reactivation as indicated by […] in EGFP fluorescence. […] Levels of reactivation with respect to the percentage of HIV-1 positive cells, as well as the EGFP MCF intensity were identical. Whereas EGFP expression in TNF-α treated J89GFP in the absence of Ro24-7429 continued to increase until 96 h post stimulation, EGFP MCF peaked after 48 h, reaching 50% of the maximal EGFP MCF seen in the absence of Ro24-7429, and the slowly declined again (FIG. 14). The observed increase of EGFP fluorescence in TNF-α treated J89GFP cells can be described as an invasion kinetics of the first order, whereas the kinetics of EGFP expression following TNF-α mediated reactivation of HIV-1 in the presence of Ro24-7429 can be best described by a Bateman function, that describes onset and elimination of HIV-1 expression. Again, integration of the equation describing each curve allows for the determination of the relative amount of virus being produced in the critical 2 days time frame. Area (A+B) represents the amount of virus produced following reactivation, and Area B represents the amount of virus produced in the presence of Ro24-7429.

The subject of series [3] is CD28 mediated HIV-1 reactivation in J89GFP cells. Kind of series: Inhibition of activating anti-CD28 antibody (5D10) mediated HIV-1 reactivation in J89GFP cells. Conditions: J89GFP pretreated, then stimulated with 5D10; inhibitors 1 μM.
Experimental: The results are representative for five independent experiments. […] (C) J89GFP cells were pretreated for two hours with the specific ERK-inhibitor U0126 (control: U0124) or the specific p38-inhibitor SB202190 (control: SB202474) and then stimulated with activating anti-CD28 antibody 5D10 (1 μg/ml). Level of reactivation was measured as %-EGFP^+ cells using flow cytometry. Results represent the mean ±S.D. of three independent experiments.
In series [4] the test system is JEGFP cells. The settings on record: 10,000 JEGFP cells/well, 384-well plate, increasing amounts of compound. As to the method: JEGFP cells were seeded at a cell density of 1×10^4 cells/well into a 384-well plate and left untreated (Control) or treated with a low concentration of daunorubicin (0.0001 μg/ml). EGFP fluorescence as a measure of cell proliferation was then determined over a period of four days.
Influence of altered cell proliferation, cell viability and compound auto-fluorescence on EGFP fluorescence intensity. […] For example, compounds that have fluorochrome characteristics in the same excitation and emission range as EGFP can unspecifically increase the fluorescence signal and can cause false positive hits. On the other hand, too high concentrations of compounds that can reactivate latent HIV-1 infection, but within the chosen concentration range, either inhibit cell proliferation or decrease cell viability can result in false negative hits. […] Compounds that unspecifically increase EGFP expression in the latently infected LWI cells due to their fluorochrome characteristics also increase EGFP fluorescence in these cells, and can be detected as false positive hits. […] As JEGFP cells divide every 24 h and EGFP fluorescence intensity, when measured by plate based fluorometry, directly correlates with the cell density (FIG. 5), any influence of the tested compound on cell proliferation or cell viability can be immediately indicated by a drop in EGFP fluorescence. […]

In the case of `CCCC(=O)[O-].[Na+]` [NaBu, sodium butyrate], the “cells in which latent HIV-1 infection was reactivated” value (“cells” for short) in series [1] worked out at 2.5%.

For the compound `CNC1=Nc2ccc(Cl)cc2C(c2ccc[nH]2)=NC1` [Ro24-7429], in series [2] (TNF-α 1 ng/ml, first 24 h), the “influence on the level of HIV-1 expression during the first 24 h” value is on record as “had no influence on the level of HIV-1 expression”. In addition, in series [2] (TNF-α 1 ng/ml, initial 2 days period, from integration of EGFP curves), the “inhibition of virus production” value was found to be 20%. Moreover, in series [2] (TNF-α 1 ng/ml, peak after 48 h), the “peak EGFP MCF relative to maximal EGFP MCF in the absence of inhibitor” value is 50%. The “suppression of reactivation of latent HIV-1” value in series [2] (in the presence of 1 ng/ml TNF-α) is recorded as “not capable of suppressing reactivation of latent HIV-1 infection”.

On to `Oc1ccc(-c2nc(-c3ccncc3)c(-c3ccc(F)cc3)[nH]2)cc1` [SB202190], for which the “effect on HIV-1 reactivation by activating anti-CD28 antibody” value in series [3] is “efficiently abrogated the activating effect of the antibody and blocked HIV-1 reactivation”.

As for `CC(/C=C/C(=O)NO)=C\[C@@H](C)C(=O)c1ccc(N(C)C)cc1` [TSA, trichostatin A], in series [1], the “cells” value came out at 3%.

Turning to `N#CC(=C(/N)Sc1ccccc1N)/C(C#N)=C(\N)Sc1ccccc1N` [U0126], the “effect on HIV-1 reactivation by activating anti-CD28 antibody” value in series [3] was “efficiently abrogated the activating effect of the antibody and blocked HIV-1 reactivation”.

As to `COc1cccc2c1C(=O)c1c(O)c3c(c(O)c1C2=O)C[C@@](O)(C(C)=O)C[C@@H]3O[C@H]1C[C@H](N)[C@H](O)[C@H](C)O1` [daunorubicin], the “EGFP expression as measure of cell proliferation/viability” value in series [4] is “sharp drop in EGFP expression”.

On to `CC(=O)O[C@@]12C[C@@H](C)[C@@]3(O)[C@@H](C=C(CO)C[C@]4(O)C(=O)C(C)=C[C@@H]34)[C@@H]1C2(C)C` [prostratin], for which the “cells” value in series [1] is given as 6%.

The values above are taken from US20080118494A1, “Compositions For Detection Of Latent Hiv Reactivation And Methods Of Using The Same” (priority 2004, published 2008).
